Data from patent US20250011368A1, “DLL3 TARGETING PEPTIDES AND CONSTRUCTS THEREOF” (MARIANA ONCOLOGY INC., priority 2023, published 2025).
Numbered stars: 1 amine (or outer) side, 2 acyl side, 3 side chain; on linkers, the order of the positions; unused ones are H or OH. Bridge positions count the residues as written; N and C are the ends. Square brackets hold non-standard residues; d marks the D form. Peptide text beside a SMILES is read from it. * marks the point of attachment. DOTA = O=C(O)CN1CCN(CC(=O)O)CCN(CC(=O)*)CCN(CC(=O)O)CC1; Phe(4-CF3) = N[C@@H](Cc1ccc(C(F)(F)F)cc1)C(=O)O; Trp(5-F) = N[C@@H](Cc1c[nH]c2ccc(F)cc12)C(=O)O; Phe(2-CF3) = N[C@@H](Cc1ccccc1C(F)(F)F)C(=O)O; Trp(7-aza) = N[C@@H](Cc1c[nH]c2ncccc12)C(=O)O; X5 = O=C([C@H](CC1C=NC2N=CC=CC12)N[*:1])[*:2]; Pro(trans-4-F) = O=C(O)[C@@H]1C[C@@H](F)CN1; Gly(4-THP) = N[C@H](C(=O)O)C1CCOCC1; Cha = N[C@@H](CC1CCCCC1)C(=O)O; Cba = N[C@@H](CC1CCC1)C(=O)O; Chg = N[C@H](C(=O)O)C1CCCCC1; Tle = CC(C)(C)[C@H](N)C(=O)O; Nle = CCCC[C@H](N)C(=O)O; Aze = O=C(O)[C@@H]1CCN1; CH2 = C([*:1])[*:2]

Biological target: T1, human DLL3 (Homo sapiens, UniProt Q9NYJ7)
T1 sequence (Q9NYJ7 27-618): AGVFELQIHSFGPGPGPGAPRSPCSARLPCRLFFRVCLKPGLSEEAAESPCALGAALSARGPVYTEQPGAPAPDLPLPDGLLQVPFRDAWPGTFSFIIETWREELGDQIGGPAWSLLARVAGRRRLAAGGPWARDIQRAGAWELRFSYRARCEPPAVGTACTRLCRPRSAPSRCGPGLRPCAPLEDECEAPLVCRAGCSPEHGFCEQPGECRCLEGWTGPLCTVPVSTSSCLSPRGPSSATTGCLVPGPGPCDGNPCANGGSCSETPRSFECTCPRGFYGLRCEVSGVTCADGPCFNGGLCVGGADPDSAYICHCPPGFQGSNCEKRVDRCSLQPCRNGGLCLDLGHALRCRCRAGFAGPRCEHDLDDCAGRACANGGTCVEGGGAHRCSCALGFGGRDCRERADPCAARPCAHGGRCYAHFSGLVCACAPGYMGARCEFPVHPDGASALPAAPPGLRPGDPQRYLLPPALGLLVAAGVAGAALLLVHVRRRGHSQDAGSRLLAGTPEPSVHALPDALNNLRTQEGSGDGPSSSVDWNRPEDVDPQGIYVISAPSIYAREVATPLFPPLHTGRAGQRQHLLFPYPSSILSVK
Assay: Affinity determination by Surface Plasmon Resonance (SPR)
Assay type: binding
Conditions: 25° C., biotinylated human DLL3 immobilized on streptavidin sensor chip, 1:1 binding model; read-out: SPR KD
Outline: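 Kinetic and affinity constants were derived by fitting sensorgrams to a 1:1 binding model. Graded compound concentrations flowed at 100 μL/minute in 20 mM phosphate running buffer with 2% DMSO over streptavidin-immobilized biotinylated human DLL3, reference-subtracted.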

Compound	Kd
CC(=O)N[C@@H](Cc1c[nH]c2ccc(F)cc12)C(=O)N[C@H](C(=O)N[C@H](C(=O)N[C@H]1CSSC[C@@H](C(=O)N[C@@H](Cc2c[nH]c3ncccc23)C(=O)N2CC[C@H]2C(=O)N[C@H](CCCCNC(=O)CN2CCN(CC(=O)O)CCN(CC(=O)O)CCN(CC(=O)O)CC2)C(N)=O)NC(=O)[C@H](CC(=O)O)NC(=O)[C@H](Cc2cnc[nH]2)NC(=O)[C@H](Cc2ccc(C(F)(F)F)cc2)NC(=O)[C@H](CC(N)=O)NC(=O)[C@H](CC(N)=O)NC1=O)C1CCCCC1)[C@@H](C)O [compound 143, Ac-(5Fluoro-W)-T-(Chg)-C(3)-N-N-(4CF3-F)-H-D-C(3)-(7Aza-W)-(Aze)-[D-Lys(DOTA)]-NH2] (Ac-[Trp(5-F)]T[Chg]CNN[Phe(4-CF3)]HDC[Trp(7-aza)][Aze][dK](DOTA)-NH2; disulfide 4-10)	1 to 10 nM
CC(=O)N[C@@H](Cc1c[nH]c2ccc(F)cc12)C(=O)N[C@H](C(=O)N[C@@H](Cc1ccccc1C(F)(F)F)C(=O)N[C@H]1CSSC[C@@H](C(=O)N[C@@H](Cc2c[nH]c3ncccc23)C(=O)N2CC[C@H]2C(=O)N[C@H](CCCCNC(=O)CN2CCN(CC(=O)O)CCN(CC(=O)O)CCN(CC(=O)O)CC2)C(N)=O)NC(=O)[C@H](CC(=O)O)NC(=O)[C@H](Cc2cnc[nH]2)NC(=O)[C@H](Cc2ccc(C(F)(F)F)cc2)NC(=O)[C@H](CC(N)=O)NC(=O)[C@H](CC(N)=O)NC1=O)[C@@H](C)O [compound 144, Ac-(5Fluoro-W)-T-(2CF3-F)-C(3)-N-N-(4CF3-F)-H-D-C(3)-(7Aza-W)-(Aze)-[D-Lys(DOTA)]-NH2] (Ac-[Trp(5-F)]T[Phe(2-CF3)]CNN[Phe(4-CF3)]HDC[Trp(7-aza)][Aze][dK](DOTA)-NH2; disulfide 4-10)	1 to 10 nM
CC(=O)N[C@@H](Cc1c[nH]c2ccc(F)cc12)C(=O)N[C@H](C(=O)N[C@H](C(=O)N[C@H]1CSSC[C@@H](C(=O)N[C@@H](CC2C=NC3N=CC=CC23)C(=O)N2C[C@H](F)C[C@H]2C(=O)N[C@H](CCCCNC(=O)CN2CCN(CC(=O)O)CCN(CC(=O)O)CCN(CC(=O)O)CC2)C(N)=O)NC(=O)[C@H](CC(=O)O)NC(=O)[C@H](Cc2cnc[nH]2)NC(=O)[C@H](Cc2ccc(C(F)(F)F)cc2)NC(=O)[C@H](CC(N)=O)NC(=O)[C@H](CC(N)=O)NC1=O)C(C)(C)C)[C@@H](C)O (stereo partly drawn) [compound 145, Ac-(5Fluoro-W)-T-(Tbg)-C(3)-N-N-(4CF3-F)-H-D-C(3)-(7Aza-W)-(trans4Fluoro-P)-[D-Lys(DOTA)]-NH2] (Ac-[Trp(5-F)]T[Tle]CNN[Phe(4-CF3)]HDC[X5][Pro(trans-4-F)][dK](DOTA)-NH2; disulfide 4-10)	1 to 10 nM
CC(=O)N[C@@H](Cc1c[nH]c2ccc(F)cc12)C(=O)N[C@H](C(=O)N[C@H](C(=O)N[C@H]1CSSC[C@@H](C(=O)N[C@@H](Cc2c[nH]c3ncccc23)C(=O)N2C[C@H](F)C[C@H]2C(=O)N[C@H](CCCCNC(=O)CN2CCN(CC(=O)O)CCN(CC(=O)O)CCN(CC(=O)O)CC2)C(N)=O)NC(=O)[C@H](CC(=O)O)NC(=O)[C@H](Cc2cnc[nH]2)NC(=O)[C@H](Cc2ccc(C(F)(F)F)cc2)NC(=O)[C@H](CC(N)=O)NC(=O)[C@H](CC(N)=O)NC1=O)C1CCOCC1)[C@@H](C)O [compound 147, Ac-(5Fluoro-W)-T-(THPG)-C(3)-N-N-(4CF3-F)-H-D-C(3)-(7Aza-W)-(trans4Fluoro-P)-[D-Lys(DOTA)]-NH2] (Ac-[Trp(5-F)]T[Gly(4-THP)]CNN[Phe(4-CF3)]HDC[Trp(7-aza)][Pro(trans-4-F)][dK](DOTA)-NH2; disulfide 4-10)	1 to 10 nM
CCCC[C@H](NC(=O)[C@@H](NC(=O)[C@H](Cc1c[nH]c2ccc(F)cc12)NC(C)=O)[C@@H](C)O)C(=O)N[C@H]1CSSC[C@@H](C(=O)N[C@@H](Cc2c[nH]c3ncccc23)C(=O)N2C[C@H](F)C[C@H]2C(=O)N[C@H](CCCCNC(=O)CN2CCN(CC(=O)O)CCN(CC(=O)O)CCN(CC(=O)O)CC2)C(N)=O)NC(=O)[C@H](CC(=O)O)NC(=O)[C@H](Cc2c[nH]cn2)NC(=O)[C@H](Cc2ccc(C(F)(F)F)cc2)NC(=O)[C@H](CC(N)=O)NC(=O)[C@H](CC(N)=O)NC1=O [compound 148, Ac-(5Fluoro-W)-T-(Nle)-C(3)-N-N-(4CF3-F)-H-D-C(3)-(7Aza-W)-(trans4Fluoro-P)-[D-Lys(DOTA)]-NH2] (Ac-[Trp(5-F)]T[Nle]CNN[Phe(4-CF3)]HDC[Trp(7-aza)][Pro(trans-4-F)][dK](DOTA)-NH2; disulfide 4-10)	1 to 10 nM
CC(=O)N[C@@H](Cc1c[nH]c2ccc(F)cc12)C(=O)N[C@H](C(=O)N[C@@H](CC1CCCCC1)C(=O)N[C@H]1CSSC[C@@H](C(=O)N[C@@H](Cc2c[nH]c3ncccc23)C(=O)N2C[C@H](F)C[C@H]2C(=O)N[C@H](CCCCNC(=O)CN2CCN(CC(=O)O)CCN(CC(=O)O)CCN(CC(=O)O)CC2)C(N)=O)NC(=O)[C@H](CC(=O)O)NC(=O)[C@H](Cc2cnc[nH]2)NC(=O)[C@H](Cc2ccc(C(F)(F)F)cc2)NC(=O)[C@H](CC(N)=O)NC(=O)[C@H](CC(N)=O)NC1=O)[C@@H](C)O [compound 149, Ac-(5Fluoro-W)-T-(CHA)-C(3)-N-N-(4CF3-F)-H-D-C(3)-(7Aza-W)-(trans4Fluoro-P)-[D-Lys(DOTA)]-NH2] (Ac-[Trp(5-F)]T[Cha]CNN[Phe(4-CF3)]HDC[Trp(7-aza)][Pro(trans-4-F)][dK](DOTA)-NH2; disulfide 4-10)	1 to 10 nM
CC(=O)N[C@@H](Cc1c[nH]c2ccc(F)cc12)C(=O)N[C@H](C(=O)N[C@@H](CC1CCC1)C(=O)N[C@H]1CSSC[C@@H](C(=O)N[C@@H](Cc2c[nH]c3ncccc23)C(=O)N2C[C@H](F)C[C@H]2C(=O)N[C@H](CCCCNC(=O)CN2CCN(CC(=O)O)CCN(CC(=O)O)CCN(CC(=O)O)CC2)C(N)=O)NC(=O)[C@H](CC(=O)O)NC(=O)[C@H](Cc2cnc[nH]2)NC(=O)[C@H](Cc2ccc(C(F)(F)F)cc2)NC(=O)[C@H](CC(N)=O)NC(=O)[C@H](CC(N)=O)NC1=O)[C@@H](C)O [compound 150, Ac-(5Fluoro-W)-T-(CBA)-C(3)-N-N-(4CF3-F)-H-D-C(3)-(7Aza-W)-(trans4Fluoro-P)-[D-Lys(DOTA)]-NH2] (Ac-[Trp(5-F)]T[Cba]CNN[Phe(4-CF3)]HDC[Trp(7-aza)][Pro(trans-4-F)][dK](DOTA)-NH2; disulfide 4-10)	1 to 10 nM
CC(=O)N[C@@H](Cc1c[nH]c2ccc(F)cc12)C(=O)N[C@H](C(=O)N[C@H](C(=O)N[C@H]1CSSC[C@@H](C(=O)N[C@@H](Cc2c[nH]c3ncccc23)C(=O)N2C[C@H](F)C[C@H]2C(=O)N[C@H](CCCCNC(=O)CN2CCN(CC(=O)O)CCN(CC(=O)O)CCN(CC(=O)O)CC2)C(N)=O)NC(=O)[C@H](CC(=O)O)NC(=O)[C@H](Cc2cnc[nH]2)NC(=O)[C@H](Cc2ccc(C(F)(F)F)cc2)NC(=O)[C@H](CC(N)=O)NC(=O)[C@H](CC(N)=O)NC1=O)C1CCCCC1)[C@@H](C)O [compound 151, Ac-(5Fluoro-W)-T-(Chg)-C(3)-N-N-(4CF3-F)-H-D-C(3)-(7Aza-W)-(trans4Fluoro-P)-[D-Lys(DOTA)]-NH2] (Ac-[Trp(5-F)]T[Chg]CNN[Phe(4-CF3)]HDC[Trp(7-aza)][Pro(trans-4-F)][dK](DOTA)-NH2; disulfide 4-10)	1 to 10 nM
CC(=O)N[C@@H](Cc1c[nH]c2ccc(F)cc12)C(=O)N[C@H](C(=O)N[C@@H](Cc1ccccc1C(F)(F)F)C(=O)N[C@H]1CSSC[C@@H](C(=O)N[C@@H](Cc2c[nH]c3ncccc23)C(=O)N2C[C@H](F)C[C@H]2C(=O)N[C@H](CCCCNC(=O)CN2CCN(CC(=O)O)CCN(CC(=O)O)CCN(CC(=O)O)CC2)C(N)=O)NC(=O)[C@H](CC(=O)O)NC(=O)[C@H](Cc2cnc[nH]2)NC(=O)[C@H](Cc2ccc(C(F)(F)F)cc2)NC(=O)[C@H](CC(N)=O)NC(=O)[C@H](CC(N)=O)NC1=O)[C@@H](C)O [compound 152, Ac-(5Fluoro-W)-T-(2CF3-F)-C(3)-N-N-(4CF3-F)-H-D-C(3)-(7Aza-W)-(trans4Fluoro-P)-[D-Lys(DOTA)]-NH2] (Ac-[Trp(5-F)]T[Phe(2-CF3)]CNN[Phe(4-CF3)]HDC[Trp(7-aza)][Pro(trans-4-F)][dK](DOTA)-NH2; disulfide 4-10)	1 to 10 nM
CC[C@H](C)[C@H](NC(=O)[C@@H](NC(=O)[C@H](Cc1c[nH]c2ccccc12)NC(C)=O)[C@@H](C)O)C(=O)N[C@H]1CSCSC[C@@H](C(=O)N[C@@H](Cc2c[nH]c3ccccc23)C(=O)N2CCC[C@H]2C(=O)N[C@H](CCCCNC(=O)CN2CCN(CC(=O)O)CCN(CC(=O)O)CCN(CC(=O)O)CC2)C(N)=O)NC(=O)[C@H](CC(=O)O)NC(=O)[C@H](Cc2cnc[nH]2)NC(=O)[C@H](Cc2c[nH]c3ccccc23)NC(=O)[C@H](CC(N)=O)NC(=O)[C@H](CC(N)=O)NC1=O [compound 164, Ac-WTI-C(1)-NNWHD-C(1)-WP-[D-Lys(DOTA)]-NH2] (Ac-WTICNNWHDCWP[dK](DOTA)-NH2; linker 4-10 via CH2)	1 to 10 nM
